Laboratory results taken from patent US20070093520A1, “Method of treatment of diarrhea-predominant irritable bowel syndrome in a subject” (priority 2005, published 2007).

System: diarrhea-predominant IBS subjects
Assay: 3007 Study: open-label 52-week safety study, adverse events and withdrawals
[1] = Placebo/Cilansetron 2 mg, N=279
[2] = Placebo/Cilansetron 2 mg, N=279, % of appropriate gender
[3] = Placebo/Cilansetron 2 mg, gender-specific

## Cc1nccn1C[C@H]1CCc2c(c3cccc4c3n2CCC4)C1=O [cilansetron, (R)-(−)-4,5,6,8,9,10-hexahydro-10-[(2-methyl-1H-imidazol-1-yl)methyl]-11H-pyrido-[3,2,1-jk]-carbazol-11-one]
[1]
  TEAE leading to permanent discontinuation: Urticaria NOS: 1 (<1%) n (%)
  TEAE leading to permanent discontinuation: Vertigo: 0 n (%)
  TEAE leading to permanent discontinuation: Visual Acuity Reduced: 1 (<1%) n (%)
  TEAE leading to permanent discontinuation: Vomiting NOS: 0 n (%)
  TEAE leading to permanent discontinuation: White Blood Cells Urine Positive: 0 n (%)
  Total Number of Subjects with at Least One TEAE Leading to Discontinuation of Study Medication: 50 (18%) n (%)
[2]
  TEAE leading to permanent discontinuation: Benign Ovarian Tumour*: 1 (<1%) n (%)
  TEAE leading to permanent discontinuation: Breast Cancer NOS*: 2 (1%) n (%)
  TEAE leading to permanent discontinuation: Ovarian Cancer NOS*: 0 n (%)
  TEAE leading to permanent discontinuation: Ovarian Cystadenofibroma*: 1 (<1%) n (%)
  TEAE leading to permanent discontinuation: Pregnancy NOS*: 0 n (%)
[3]
  TEAE: Female Reproductive Tract Infections*: 0 n (%)
  TEAE: Prostate Examination Abnormal*: 0 n (%)
  TEAE: Smear Cervix Abnormal*: 0 n (%)
  TEAE: Vaginal Candidiasis*: 1 (<1%) n (%)
  TEAE: Vaginitis Bacterial NOS*: 0 n (%)
  TEAE: Vaginitis*: 0 n (%)
  TEAE: Vaginosis Fungal NOS*: 1 (<1%) n (%)
Studies 3006 and 3007
  potential complications of constipation: two
Study 3007
  constipation episodes reported as SAEs: None
  constipation that led to dose reduction: seven
  deaths: No deaths
  longest duration of a constipation episode: 189 days
  mean longest duration of a constipation episode: 10.4 days
  median longest duration of a constipation episode: four
  subjects mildly bothered by the constipation: 8%
  subjects moderately bothered by the constipation: 7%
  subjects reporting only one constipation episode: 15%
  subjects with a constipation episode that lasted longer than 30 days: Thirteen
  subjects with an SAE reported as probably related to study medication (colitis ischemic): One
  subjects with treatment-emergent SAEs reported as unlikely related to study medication: five
  treatment-emergent SAE: angina pectoris: two
  treatment-emergent SAE: breast cancer NOS: two
  treatment-emergent SAE: chest pain: two
  treatment-emergent SAEs of cardiac disorders: four
  treatment-emergent rectal hemorrhage: Eight
Study 3007, 2 mg TID over 52 weeks
  overall safety, tolerability and QOL finding: generally safe, well-tolerated, and improved QOL
Study 3007, 18 to 40 years
  TEAE incidence: abdominal pain NOS: 8%
  TEAE incidence: constipation: 19%
  TEAE incidence: flatulence, bloating and distension: 8%
  TEAE incidence: headache NOS: 7%
  TEAE incidence: lower respiratory tract and lung infections: 4%
  TEAE incidence: nausea and vomiting symptoms: 9%
  TEAE incidence: sinusitis NOS: 9%
Study 3007, 41 to 64 years
  TEAE incidence: abdominal pain NOS: 5%
  TEAE incidence: constipation: 23%
  TEAE incidence: flatulence, bloating and distension: 5%
  TEAE incidence: headache NOS: 6%
  TEAE incidence: lower respiratory tract and lung infections: 6%
  TEAE incidence: nausea and vomiting symptoms: 6%
  TEAE incidence: sinusitis NOS: 7%
Study 3007, 65 years or older
  TEAE incidence: abdominal pain NOS: 12%
  TEAE incidence: constipation: 37%
  TEAE incidence: flatulence, bloating and distension: 12%
  TEAE incidence: headache NOS: 1%
  TEAE incidence: lower respiratory tract and lung infections: 1%
  TEAE incidence: nausea and vomiting symptoms: 1%
  TEAE incidence: sinusitis NOS: 3%
Study 3007, C/C
  SAE: Abdominal Pain Upper: 1 (<1%) n (%)
  SAE: Adenomyosis*: 1 (<1%) n (%)
  SAE: Angina Pectoris: 2 (<1%) n (%)
  SAE: Appendicitis: 1 (<1%) n (%)
  SAE: Asthma NOS: 0 n (%)
  SAE: Benign Ovarian Tumour*: 0 n (%)
  SAE: Bladder Prolapse: 0 n (%)
  SAE: Bone Neoplasm Malignant: 1 (<1%) n (%)
  SAE: Breast Cancer NOS*: 0 n (%)
  SAE: Bronchopneumonia NOS: 0 n (%)
  SAE: Calculus Ureteric: 1 (<1%) n (%)
  SAE: Cardiac Disorders: 3 (1%) n (%)
  SAE: Chest Pain: 1 (<1%) n (%)
  SAE: Cholelithiasis: 1 (<1%) n (%)
  SAE: Colitis Ischaemic: 0 n (%)
  SAE: Depression: 0 n (%)
  SAE: Endometriosis*: 1 (<1%) n (%)
  SAE: Fibroma NOS: 0 n (%)
  SAE: Food Allergy: 0 n (%)
  SAE: Gastritis NOS: 1 (<1%) n (%)
  SAE: Gastroenteritis NOS: 1 (<1%) n (%)
  SAE: Gastrointestinal Disorders: 3 (1%) n (%)
  SAE: General Disorders and Administration Site Conditions: 1 (<1%) n (%)
  SAE: Hallucination NOS: 0 n (%)
  SAE: Hallucination, Auditory: 0 n (%)
  SAE: Heat Exhaustion: 1 (<1%) n (%)
